This is an account of results in patent US5928645A, “Extracted substance having anti-HIV activity” (Young Bok Han & Korean Assoc. of Creation Research, priority 1992, dated 1999).

One assay concerns HIV. The conditions noted are these: Tan et al. 1992; cited from earlier work.
Assay [1] concerns HIV reverse transcriptase. The conditions noted are these: cited from earlier work.
The subject of assay [2] is HIV-infected cells (T cell line SupT1). As to the kind of experiment: Syncytium-formation assay (number of multinucleate cells). The conditions noted are these: three-day incubation. In kind it is cell-based. The method, then:
To evaluate toxicity of the extracted substances on a T cell line (SupT1), maximum acceptable concentrations of antiviral agents were determined as follows:
After incubation, the cells were treated with trypan blue. The number of cells that excluded the dye was counted using a hemocytometer. "TCID50 " is defined as the 50% tissue culture-infective dose. (Reference: Techniques in HIV research, ed. Aldovini, A., and Walter, B. D., Stockton Press, N.Y. Unitd States, Chapter 4. Quantitative assay for virus infectivity, pp. 71-73, 1990.) The 50% tissue culture-infective dose (TCID50) is calculated using the method of Reed and Muench (Dulbecco, R., "Endpoint Method-Measurement of the infectious titer of a viral sample" in the chapter entitled: The Nature of Viruses in Virology, Second Edition, J. P. Lippincott, Philadelphia, pp. 22-25, 1988). This method is applicable for measuring the infectious titer of a viral sample from an assay involving a series of progressive dilutions of virus. To generate the 50% endpoint dilution, an empirical pooling of the results is done after reading the plate for visible infection at all of the dilutions tested. In cell cultures, the tissue culture infective dose (TCID50) is the dilution of virus suspension that infects 50% of the cell cultures as measured by visible CPE.
After a three-day incubation the number of multinucleate cells in each culture were counted. As comparative tests, similar experiments were performed using AZT or berberine, rather than the extract of the present invention, to treat the cells.

The test system of the next assay is reverse transcriptase. As to the kind of experiment: Reverse transcriptase activity of HIV-infected H9 cells. The format is cell-based. The conditions noted are these: 0.5 μg/ml. As for the experimental part: The effect of the extract of the present invention on reverse transcriptase activity and on viral replication was also measured in H9 host cells. HIV infected H9 cells were cultured in RPMI 1640 supplemented with 10% (v/v) of heat-inactivated fetal calf serum and 1% (v/v) […] Every third day 1/4 of the cultures were transferred to new media containing the same concentration of the extract. The cultures were harvested after 9 days and centrifuged for 3 minutes in an Eppendorf centrifuge. 600 μl of supernatant was mixed 300 μl of 30% polyethylene glycol (PEG) and then centrifuged for 10 minutes. The pellet was resuspended in RT suspension buffer (50 mM Tris, pH 7.5, 1 mM DTT, 20% glycerol, 0.25% Triton X-100). These virus samples were frozen at -70° C. until assayed. Aliquots of virus (10 μl) were incubated with 20 μl of a cocktail containing 50 mM Tris, pH 7.5, 5 mM DTT, 5 mM MgCl2, 150 mM KCl, 0.05% Triton X-100, 0.3 mM glutathione, 0.5 mM EGTA, 50 μg/ml poly(rA)dT, 10μ Ci thymidine triphosphate, and 17.25 μl distilled water for 1 hour at 37° C. […] Precipitates were collected on Whatman GF/C glass fibers, washed several times with ice-cold 5% TCA and once with 70% ethanol, air dried and counted in a liquid scintillation counter.

In assay [3] the test system is ABEI-microperoxidase-H2 O2 system. Briefly: Antioxidant activity by chemiluminescence (inhibition of light intensity). In kind it is biochemical. The text has this:
Therefore, we characterized the extract of the present invention with respect to its ability to function as an antioxidant. We compared the extract to the known antioxidant t-butylhydroxy toluene (BHT) using a chemiluminescence assay developed in this laboratory. […] Therefore, it is proposed that the extract has anti-HIV effect.
Materials: microperoxidase (MP, Sigma Chemical Company, St. Louis, Mo., U.S.A.), aminobuty ethylisoluminol (ABEI, Sigma Chemical Company, St. Louis, Mo., U.S.A.), t-butylhydroxy toluene (BHT, Sigma Chemical Company, St. Louis, Mo., U.S.A.).
An ABEI-microperoxidase-H2 O2 system was used to assay the antioxidant activity of the extract of the present invention and also that of the known antioxidant BHT. The activity of berberine as an antioxidant was also assessed.
ABEI was used at 0.18 μM. Compounds being assayed were used at 10 mg/ml as a maximum concentration and also at serial dilutions. 200 μL of ABEI, t-butylhydroxy toluene (BHT), pure berberine or the extracted substance at 10 mg/ml (or a serial dilution thereof) were put in a polystyrene tube suitable for use in a Berthold 9502 luminometer. Hydrogen peroxide (0.35%) and microperoxidase (0.01 mg/ml) were autoinjected into the tube to start the chemiluminescence reaction. Chemiluminescence from the reaction was measured for 2 seconds using a Berthold Luminometer 9502 (Clilumat). In control samples distilled water and ethyl alcohol were used. The antioxidant activity of the extract was compared with commercial antioxidant BHT. The antioxidant activity of BHT has been studied for many years (Branen, A. L.; Toxicological and biochemistry of butylated hydrosyanisole and butylated hydroxytoluene. J. Am. Oil Chem. Soc. 52:59, 1975). BHT removes free radicals in oxidation reactions, and it inhibits oxidation of materials.
An antioxidant present in the sample will prevent ABEI from being oxidized by microperoxidase, thus inhibiting chemiluminescence. Antioxidant activity was calculated from the chemiluminescence intensity using the following expression: [formula]

The mark [4] stands for this setting: with respect to the template-primer complex, (rA)n, (dT).
Where [5] appears, read: with respect to the triphosphate substrate, dTTP.

Each structure is given as a SMILES string. Where two headings read alike, the source gives them in different places.

On to `COc1cc2c(cc1O)CC[n+]1cc3c(OC)c(OC)ccc3cc1-2` [jatrorrhizine chloride], for which the “order of anti-HIV effect” value in the assay with HIV is “jatrorrhizine chloride>berberine chloride>coptisine chloride”.
Consider `O=c1c(O)c(-c2ccc(O)c(O)c2)oc2cc(O)c(O)c(O)c12` [quercetagetin], for which the mode of inhibition entry in assay [1] (setting [4]) is given as “partially competitive”; in assay [1] (setting [5]), “noncompetitive”.
For the compound `COc1ccc2cc3[n+](cc2c1OC)CCc1cc2c(cc1-3)OCO2` [Berberine, berberine], the “No. of Multiple-Nucleate Cells” value is given as 8 in assay [2] (0.1 μg/mL), 5 in assay [2] (0.5 μg/mL), 2 in assay [2] (1 μg/mL) and 1 in assay [2] (3 μg/mL). Besides, the “inhibition of viral RT activity” value in the assay on reverse transcriptase is on record as “marked inhibitory effect on RT activity”. For the same compound, the “Percentage of inhibition of light intensity” value in assay [3] (0.63 mg/ml) is reported as 11%; in assay [3] (1.25 mg/ml), 12%; in assay [3] (2.5 mg/ml) it was 12%; in assay [3] (5.0 mg/ml) it was 21%; in assay [3] (10.0 mg/ml), 57%. Moreover, in assay [3] (0.63-10.0 mg/ml), the “antioxidant activity compared with the total extract” value is “much lower”.
As to `COc1ccc2cc3[n+](cc2c1OC)CCc1cc2c(cc1-3)OCO2` [berberine chloride], in the assay with HIV, the “order of anti-HIV effect” value is listed as “jatrorrhizine chloride>berberine chloride>coptisine chloride”.
Regarding `Cc1cn([C@H]2C[C@H](N=[N+]=[N-])[C@@H](CO)O2)c(=O)[nH]c1=O` [AZT, azidothymidine], the “No. of Multiple-Nucleate Cells” value in assay [2] (0.2 μg/mL) was found to be 0; in assay [2] (0.5 μg/mL) it was 1; in assay [2] (1 μg/mL), 0; in assay [2] (5 μg/mL), 0.
On to `c1c2c(cc3c1OCO3)-c1cc3ccc4c(c3c[n+]1CC2)OCO4` [coptisine chloride], for which the “order of anti-HIV effect” value in the assay with HIV is reported as “jatrorrhizine chloride>berberine chloride>coptisine chloride”.
Consider `O=c1cc(-c2ccccc2)oc2cc(O)c(O)c(O)c12` [baicalein], for which the mode of inhibition entry is listed as “partially competitive” in assay [1] (setting [4]) and “noncompetitive” in assay [1] (setting [5]).
With `O=c1c(O)c(-c2ccc(O)c(O)c2)oc2cc(O)cc(O)c12` [quercetin], the mode of inhibition entry in assay [1] (setting [4]) was “partially competitive”; in assay [1] (setting [5]), “noncompetitive”.
